The values below come from ChEMBL document CHEMBL5291721, “A preclinical secondary pharmacology resource illuminates target-adverse drug reaction associations of marketed drugs” (Nat Commun, 2023).

Assay [1] has as its target Vascular endothelial growth factor receptor 2 (Homo sapiens, UniProt P35968). The format is functional.
In assay [2] the target is T1, Thromboxane A2 receptor (Homo sapiens, UniProt P21731).
T1 sequence (P21731 whole entry): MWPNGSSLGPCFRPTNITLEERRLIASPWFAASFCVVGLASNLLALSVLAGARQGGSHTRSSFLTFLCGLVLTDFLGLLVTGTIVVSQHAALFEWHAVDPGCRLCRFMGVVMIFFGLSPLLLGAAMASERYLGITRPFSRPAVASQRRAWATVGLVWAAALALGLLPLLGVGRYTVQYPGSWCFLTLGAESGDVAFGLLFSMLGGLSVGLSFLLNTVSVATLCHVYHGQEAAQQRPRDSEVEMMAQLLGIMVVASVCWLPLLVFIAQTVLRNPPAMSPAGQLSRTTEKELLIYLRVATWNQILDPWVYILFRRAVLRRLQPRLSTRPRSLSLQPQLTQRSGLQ
In kind it is functional, cell-based.

Assay [3] has as its target cGMP-inhibited 3',5'-cyclic phosphodiesterase 3A (Homo sapiens, UniProt Q14432). The format is functional.
Assay [4] addresses T1, Thromboxane A2 receptor. The format is functional, cell-based. The source holds these as a separate data set.
In assay [5] the target is Sodium-dependent dopamine transporter (Homo sapiens, UniProt Q01959).
Assay [6] addresses Acetylcholinesterase (Homo sapiens, UniProt P22303). The format is functional.
For assay [7], the target named is D(1A) dopamine receptor (Homo sapiens, UniProt P21728).
Assay [8] concerns the target T2, Amine oxidase [flavin-containing] A (Homo sapiens, UniProt P21397).
T2 sequence (P21397 whole entry): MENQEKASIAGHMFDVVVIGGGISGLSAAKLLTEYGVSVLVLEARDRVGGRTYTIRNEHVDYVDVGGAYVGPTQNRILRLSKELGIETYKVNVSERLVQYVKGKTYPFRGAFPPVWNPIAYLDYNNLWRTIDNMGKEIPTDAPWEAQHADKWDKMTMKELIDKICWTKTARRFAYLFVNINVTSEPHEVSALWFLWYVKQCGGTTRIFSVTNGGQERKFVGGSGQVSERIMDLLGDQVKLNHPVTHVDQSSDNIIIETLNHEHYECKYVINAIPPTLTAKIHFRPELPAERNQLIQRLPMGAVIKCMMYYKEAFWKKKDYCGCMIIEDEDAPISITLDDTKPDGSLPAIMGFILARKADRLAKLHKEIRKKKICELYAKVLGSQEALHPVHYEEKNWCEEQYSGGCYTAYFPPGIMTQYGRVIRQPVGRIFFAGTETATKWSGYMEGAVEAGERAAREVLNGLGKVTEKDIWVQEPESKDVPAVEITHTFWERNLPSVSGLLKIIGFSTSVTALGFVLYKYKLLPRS
In kind it is functional.

Assay [9] concerns the target 5-hydroxytryptamine receptor 2B (Homo sapiens, UniProt P41595). In kind it is functional, cell-based.
The target of assay [10] is Prothrombin (Homo sapiens, UniProt P00734). The format is functional.
The target of assay [11] is T3, Prostaglandin G/H synthase 1 (Homo sapiens, UniProt P23219). In kind it is functional.
The target in assay [12] is Sodium-dependent noradrenaline transporter (Homo sapiens, UniProt P23975).
Assay [13] addresses T3, Prostaglandin G/H synthase 1. The format is functional. The source holds these as a separate data set.
In assay [14] the target is T4, 5-hydroxytryptamine receptor 1A (Homo sapiens, UniProt P08908).
T4 sequence (P08908 whole entry): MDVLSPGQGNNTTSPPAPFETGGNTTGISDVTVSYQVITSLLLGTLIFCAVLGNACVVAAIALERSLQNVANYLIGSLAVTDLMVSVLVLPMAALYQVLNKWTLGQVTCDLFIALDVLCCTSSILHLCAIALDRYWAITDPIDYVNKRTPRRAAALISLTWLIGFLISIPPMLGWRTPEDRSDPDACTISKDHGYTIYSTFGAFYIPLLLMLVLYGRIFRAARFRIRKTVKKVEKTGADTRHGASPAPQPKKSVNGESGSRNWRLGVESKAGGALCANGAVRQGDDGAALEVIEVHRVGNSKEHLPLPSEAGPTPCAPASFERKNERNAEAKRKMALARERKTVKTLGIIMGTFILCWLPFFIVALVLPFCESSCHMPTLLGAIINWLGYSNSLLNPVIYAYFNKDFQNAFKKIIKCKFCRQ

Assay [15] addresses T5, Progesterone receptor (Homo sapiens, UniProt P06401).
T5 sequence (P06401 whole entry): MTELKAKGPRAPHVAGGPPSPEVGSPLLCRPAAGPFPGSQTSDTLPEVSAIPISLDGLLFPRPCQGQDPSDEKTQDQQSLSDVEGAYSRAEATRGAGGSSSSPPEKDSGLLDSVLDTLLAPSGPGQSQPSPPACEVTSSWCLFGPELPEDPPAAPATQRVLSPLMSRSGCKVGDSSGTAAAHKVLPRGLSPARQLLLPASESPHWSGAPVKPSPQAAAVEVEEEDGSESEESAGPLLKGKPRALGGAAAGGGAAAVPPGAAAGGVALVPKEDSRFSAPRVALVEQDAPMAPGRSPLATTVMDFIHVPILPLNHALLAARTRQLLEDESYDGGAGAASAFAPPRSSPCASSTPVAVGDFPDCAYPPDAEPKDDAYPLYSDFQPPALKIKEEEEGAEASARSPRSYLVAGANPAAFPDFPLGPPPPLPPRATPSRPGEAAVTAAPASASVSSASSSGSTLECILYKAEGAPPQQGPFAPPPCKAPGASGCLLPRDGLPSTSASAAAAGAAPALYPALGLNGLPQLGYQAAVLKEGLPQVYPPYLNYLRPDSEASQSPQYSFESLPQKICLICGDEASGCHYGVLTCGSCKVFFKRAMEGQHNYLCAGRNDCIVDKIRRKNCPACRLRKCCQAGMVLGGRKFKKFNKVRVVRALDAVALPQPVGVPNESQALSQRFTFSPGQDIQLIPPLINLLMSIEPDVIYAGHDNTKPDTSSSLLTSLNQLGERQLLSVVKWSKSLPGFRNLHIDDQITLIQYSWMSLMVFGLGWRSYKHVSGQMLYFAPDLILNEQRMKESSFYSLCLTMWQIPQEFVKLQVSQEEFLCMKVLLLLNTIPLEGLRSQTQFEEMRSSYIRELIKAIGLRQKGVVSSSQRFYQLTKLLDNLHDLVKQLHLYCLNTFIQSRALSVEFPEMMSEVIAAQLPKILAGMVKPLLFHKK

Where only a bound is given, the exact number is not on record here.
Further: assay procedure not described here.

Chain of D(1A) dopamine receptor (P21728 whole entry): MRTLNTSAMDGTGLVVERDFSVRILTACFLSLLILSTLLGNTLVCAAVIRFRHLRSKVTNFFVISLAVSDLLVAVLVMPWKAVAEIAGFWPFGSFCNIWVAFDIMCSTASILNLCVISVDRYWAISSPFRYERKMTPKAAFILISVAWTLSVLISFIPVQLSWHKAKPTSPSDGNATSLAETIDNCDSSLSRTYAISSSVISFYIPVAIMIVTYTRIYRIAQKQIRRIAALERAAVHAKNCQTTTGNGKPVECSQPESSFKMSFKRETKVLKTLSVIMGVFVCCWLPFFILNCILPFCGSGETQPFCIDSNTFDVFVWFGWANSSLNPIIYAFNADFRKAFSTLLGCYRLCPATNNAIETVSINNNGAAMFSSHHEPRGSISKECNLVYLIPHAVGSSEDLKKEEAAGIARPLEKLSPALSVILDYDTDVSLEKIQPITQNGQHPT
Chain of 5-hydroxytryptamine receptor 2B (P41595 whole entry): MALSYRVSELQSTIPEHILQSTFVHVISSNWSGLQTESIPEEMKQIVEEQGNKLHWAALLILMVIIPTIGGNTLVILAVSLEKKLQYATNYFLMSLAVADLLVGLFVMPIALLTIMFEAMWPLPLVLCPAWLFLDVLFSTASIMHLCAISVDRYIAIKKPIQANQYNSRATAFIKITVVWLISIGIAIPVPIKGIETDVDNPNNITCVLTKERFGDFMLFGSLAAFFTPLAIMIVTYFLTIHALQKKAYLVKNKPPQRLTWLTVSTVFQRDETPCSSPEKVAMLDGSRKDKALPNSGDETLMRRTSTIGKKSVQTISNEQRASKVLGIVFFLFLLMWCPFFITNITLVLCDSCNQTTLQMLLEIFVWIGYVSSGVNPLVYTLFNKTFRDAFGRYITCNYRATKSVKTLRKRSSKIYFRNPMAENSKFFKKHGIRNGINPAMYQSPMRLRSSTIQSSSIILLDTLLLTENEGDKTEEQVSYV
Chain of Acetylcholinesterase (P22303 whole entry): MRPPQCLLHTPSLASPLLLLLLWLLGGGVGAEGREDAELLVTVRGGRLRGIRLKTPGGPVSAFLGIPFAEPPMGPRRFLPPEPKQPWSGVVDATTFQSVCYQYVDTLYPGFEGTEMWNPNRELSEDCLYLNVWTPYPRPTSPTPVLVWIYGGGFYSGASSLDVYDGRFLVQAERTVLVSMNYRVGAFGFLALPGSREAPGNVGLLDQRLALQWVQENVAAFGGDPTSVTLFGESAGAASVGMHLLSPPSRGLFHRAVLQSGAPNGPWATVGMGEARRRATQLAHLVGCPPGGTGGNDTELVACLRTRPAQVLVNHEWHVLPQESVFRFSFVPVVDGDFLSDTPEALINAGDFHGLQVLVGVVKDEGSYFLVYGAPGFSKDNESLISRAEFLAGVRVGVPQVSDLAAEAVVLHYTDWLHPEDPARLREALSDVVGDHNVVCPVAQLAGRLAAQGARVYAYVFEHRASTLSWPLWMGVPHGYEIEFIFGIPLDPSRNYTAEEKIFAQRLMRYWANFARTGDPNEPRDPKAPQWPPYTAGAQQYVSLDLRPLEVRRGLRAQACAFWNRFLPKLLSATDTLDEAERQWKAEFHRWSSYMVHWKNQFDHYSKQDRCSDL
Chain of Sodium-dependent dopamine transporter (Q01959 whole entry): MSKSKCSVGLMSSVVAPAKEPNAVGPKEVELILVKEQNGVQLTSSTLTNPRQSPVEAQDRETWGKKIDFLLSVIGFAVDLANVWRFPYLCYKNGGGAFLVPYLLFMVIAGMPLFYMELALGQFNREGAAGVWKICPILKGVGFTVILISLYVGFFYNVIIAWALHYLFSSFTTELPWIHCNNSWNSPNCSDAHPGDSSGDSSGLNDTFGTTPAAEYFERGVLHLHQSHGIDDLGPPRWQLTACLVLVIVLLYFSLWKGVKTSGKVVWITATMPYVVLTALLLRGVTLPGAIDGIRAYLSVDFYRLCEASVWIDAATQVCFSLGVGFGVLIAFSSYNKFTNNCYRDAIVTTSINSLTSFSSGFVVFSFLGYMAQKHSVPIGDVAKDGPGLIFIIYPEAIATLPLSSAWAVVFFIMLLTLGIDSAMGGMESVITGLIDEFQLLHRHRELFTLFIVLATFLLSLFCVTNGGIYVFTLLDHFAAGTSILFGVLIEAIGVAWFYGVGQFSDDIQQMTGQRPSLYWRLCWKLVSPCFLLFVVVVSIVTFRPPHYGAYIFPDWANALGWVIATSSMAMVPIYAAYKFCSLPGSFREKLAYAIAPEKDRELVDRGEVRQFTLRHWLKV
Chain of cGMP-inhibited 3',5'-cyclic phosphodiesterase 3A (Q14432 whole entry): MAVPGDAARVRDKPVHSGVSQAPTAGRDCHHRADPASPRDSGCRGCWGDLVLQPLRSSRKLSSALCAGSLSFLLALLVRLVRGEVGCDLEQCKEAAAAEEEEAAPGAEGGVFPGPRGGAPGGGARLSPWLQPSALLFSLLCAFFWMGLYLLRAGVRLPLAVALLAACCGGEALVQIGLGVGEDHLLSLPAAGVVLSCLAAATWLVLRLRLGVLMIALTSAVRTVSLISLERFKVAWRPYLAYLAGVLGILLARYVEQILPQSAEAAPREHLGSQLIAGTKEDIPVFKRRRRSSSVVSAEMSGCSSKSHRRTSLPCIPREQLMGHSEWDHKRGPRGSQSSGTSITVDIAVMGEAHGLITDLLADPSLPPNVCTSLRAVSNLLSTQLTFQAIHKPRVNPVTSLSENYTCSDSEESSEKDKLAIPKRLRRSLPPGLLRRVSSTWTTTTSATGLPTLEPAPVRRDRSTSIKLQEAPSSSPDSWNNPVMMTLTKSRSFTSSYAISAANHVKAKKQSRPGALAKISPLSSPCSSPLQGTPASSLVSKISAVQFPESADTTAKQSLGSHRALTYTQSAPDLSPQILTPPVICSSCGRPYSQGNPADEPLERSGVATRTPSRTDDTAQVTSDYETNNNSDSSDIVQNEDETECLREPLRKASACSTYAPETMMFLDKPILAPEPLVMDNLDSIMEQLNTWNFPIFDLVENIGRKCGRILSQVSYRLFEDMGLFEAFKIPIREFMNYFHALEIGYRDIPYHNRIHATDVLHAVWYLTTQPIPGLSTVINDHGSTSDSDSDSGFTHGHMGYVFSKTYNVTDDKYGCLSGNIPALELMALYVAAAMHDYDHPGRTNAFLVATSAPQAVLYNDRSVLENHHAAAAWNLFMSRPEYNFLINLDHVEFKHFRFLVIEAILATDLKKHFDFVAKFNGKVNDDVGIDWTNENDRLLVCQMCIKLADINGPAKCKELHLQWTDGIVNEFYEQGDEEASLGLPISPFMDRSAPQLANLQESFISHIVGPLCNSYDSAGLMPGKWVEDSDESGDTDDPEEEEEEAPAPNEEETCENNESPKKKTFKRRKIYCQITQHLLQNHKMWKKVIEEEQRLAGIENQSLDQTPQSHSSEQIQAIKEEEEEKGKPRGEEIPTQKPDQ
Chain of Sodium-dependent noradrenaline transporter (P23975 whole entry): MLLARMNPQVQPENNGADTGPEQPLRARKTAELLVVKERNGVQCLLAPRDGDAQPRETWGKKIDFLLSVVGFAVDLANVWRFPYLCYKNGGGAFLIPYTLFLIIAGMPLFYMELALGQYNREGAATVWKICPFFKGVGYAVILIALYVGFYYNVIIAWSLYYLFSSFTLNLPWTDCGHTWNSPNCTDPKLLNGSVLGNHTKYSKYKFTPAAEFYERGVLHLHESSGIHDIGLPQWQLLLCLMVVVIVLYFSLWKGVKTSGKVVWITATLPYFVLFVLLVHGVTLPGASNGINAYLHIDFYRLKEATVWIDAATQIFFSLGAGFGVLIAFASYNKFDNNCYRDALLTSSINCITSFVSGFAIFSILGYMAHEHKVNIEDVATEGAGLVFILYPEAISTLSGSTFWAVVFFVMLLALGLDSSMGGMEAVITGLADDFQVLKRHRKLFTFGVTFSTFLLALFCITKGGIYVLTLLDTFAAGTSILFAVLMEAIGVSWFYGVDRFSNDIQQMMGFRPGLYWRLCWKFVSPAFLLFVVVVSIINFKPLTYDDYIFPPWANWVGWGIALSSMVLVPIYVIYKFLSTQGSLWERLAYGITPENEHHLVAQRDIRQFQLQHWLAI
T3 sequence (P23219 whole entry): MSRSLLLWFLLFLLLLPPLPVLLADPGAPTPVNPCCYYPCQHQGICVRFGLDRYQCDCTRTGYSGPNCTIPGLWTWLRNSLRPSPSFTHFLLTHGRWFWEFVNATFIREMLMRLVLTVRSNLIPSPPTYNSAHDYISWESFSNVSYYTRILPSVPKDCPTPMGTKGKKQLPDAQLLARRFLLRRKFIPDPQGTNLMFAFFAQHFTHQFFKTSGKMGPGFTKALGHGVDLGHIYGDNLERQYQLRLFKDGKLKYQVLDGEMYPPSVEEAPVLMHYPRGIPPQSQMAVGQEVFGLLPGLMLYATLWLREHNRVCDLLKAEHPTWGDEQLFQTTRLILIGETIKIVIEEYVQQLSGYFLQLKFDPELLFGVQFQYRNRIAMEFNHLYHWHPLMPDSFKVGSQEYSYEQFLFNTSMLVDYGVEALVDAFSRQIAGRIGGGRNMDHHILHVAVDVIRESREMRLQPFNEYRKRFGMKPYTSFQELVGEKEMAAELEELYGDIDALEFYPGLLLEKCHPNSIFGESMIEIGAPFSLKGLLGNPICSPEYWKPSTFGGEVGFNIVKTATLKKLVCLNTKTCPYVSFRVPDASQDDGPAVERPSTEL

Take `Cc1ccc2c([nH]c(=O)c3c(=O)cc(C(=O)OCCC(C)C)oc32)c1C`: the AC50 in [1] was > 30 µM; in assay [2], > 30 µM; in assay [3], > 30 µM; in [4], > 30 µM; in assay [5], > 30 µM; in [6] it was 6.76 µM. In addition, the AC50 is > 30 µM in assay [7]; > 30 µM in assay [8]; > 10 µM in assay [9]; > 30 µM in assay [10]; 21.3 µM in assay [11]; > 30 µM in assay [12]. Also, the AC50 in assay [13], in assay [14] and in assay [15] was > 30 µM in each case.

Take `COC(=O)N[C@H](C(=O)N1CC2(CC2)C[C@H]1c1ncc(-c2ccc3c(c2)C(F)(F)c2cc(-c4ccc5nc([C@@H]6[C@H]7CC[C@H](C7)N6C(=O)[C@@H](NC(=O)OC)C(C)C)[nH]c5c4)ccc2-3)[nH]1)C(C)C`: the AC50 in [1], in assay [2], in assay [3], in assay [4], in assay [5] and in assay [6] was > 30 µM in each case. Also, the AC50 in assay [7], in assay [8], in assay [9], in [10], in assay [11] and in [12] was > 30 µM each time. Further, the AC50 in assay [13] was > 30 µM; in assay [14] it was > 30 µM; in [15], > 10 µM.

As for `N[C@@H](Cc1ccc(N(CCCl)CCCl)cc1)C(=O)O`, the AC50 in assay [1] was > 30 µM; in assay [2], > 30 µM; in [3], > 30 µM; in [4], > 30 µM; in [5], 16.9 µM; in assay [6], 20 µM. Besides, the AC50 was > 30 µM in [7]; > 30 µM in assay [8]; > 30 µM in assay [9]; > 30 µM in assay [10]; 6.82 µM in assay [11]; > 30 µM in assay [12]. Further, the AC50 in assay [13], in assay [14] and in [15] was > 30 µM throughout.

As for `Cc1cnc(C(=O)O)c[n+]1[O-]` [ACIPIMOX], the AC50 in assay [1], in assay [2], in assay [3], in assay [4], in assay [5] and in [6] was > 30 µM each time. The AC50 in [7], in assay [8], in assay [9], in assay [10], in assay [11] and in [12] was > 30 µM in each case. Besides, the AC50 in assay [13], in assay [14] and in assay [15] was > 30 µM in each case.

`CC1=C(/C=C/C(C)=C\C=C\C(C)=C\C(=O)O)C(C)(C)CCC1` [ALITRETINOIN]: the AC50 in assay [1], in [2], in assay [3], in [4], in [5] and in assay [6] was > 30 µM each time. For the same compound, the AC50 in assay [7], in assay [8], in assay [9], in assay [10], in [12] and in assay [14] was > 30 µM throughout. Besides, the AC50 in [15] is > 30 µM.

Take `Nc1ccc(C(=O)NCC(=O)O)cc1` [AMINOHIPPURIC ACID]: the AC50 in assay [1], in assay [2], in [3], in assay [4], in assay [5] and in assay [6] was > 30 µM throughout. Moreover, the AC50 in assay [7], in assay [8], in [9], in [10], in assay [11] and in assay [12] was > 30 µM throughout. Further, the AC50 in assay [13], in [14] and in [15] was > 30 µM in each case.

`CC1(C)S[C@@H]2[C@H](NC(=O)[C@H](NC(=O)c3cnc4cccnc4c3O)c3ccccc3)C(=O)N2[C@H]1C(=O)O` [APALCILLIN]: the AC50 in [1], in assay [2], in assay [3], in assay [4], in assay [5] and in assay [6] was > 30 µM in each case. Further, the AC50 in assay [7] was > 30 µM; in [8] it was > 30 µM; in assay [9], > 30 µM; in [10], > 30 µM; in assay [11] it was 14.6 µM; in [12] it was > 30 µM. Moreover, the AC50 in [13] was 17.6 µM; in assay [14] it was > 30 µM; in [15], > 30 µM.

With `CC1=C(/C=C/C(C)=C/C=C/C(C)=C\C(=O)O)C(C)(C)CCC1` [ISOTRETINOIN], the AC50 in [1], in assay [2], in [3], in assay [4], in assay [5] and in assay [6] was > 30 µM each time. Further, the AC50 in [7], in assay [8], in assay [9], in [10], in assay [12] and in [14] was > 30 µM throughout. Moreover, the AC50 in assay [15] was > 30 µM.

As to `CCn1c(=O)c2c(nc(/C=C/c3ccc(OC)c(OC)c3)n2C)n(CC)c1=O` [ISTRADEFYLLINE], the AC50 is > 10 µM in assay [1]; > 30 µM in assay [2]; > 30 µM in assay [3]; > 30 µM in assay [4]; > 30 µM in assay [5]; > 30 µM in assay [6]. The AC50 in [7], in assay [8], in assay [9], in [11], in [12] and in assay [13] was > 30 µM in each case. In addition, the figures for the AC50 in [14] and in assay [15] were 10.5 µM and > 30 µM, respectively.
